Source: PubChem BioAssay AID256 (DTP/NCI, 2004)
“And” between values parts separate entries of the source, which are not always exact repeats. Equal values may be shown once. Inconclusive results and toxic doses are left out. Rule for the calls: active = survival T/C of 150% or more; inactive = T/C below 125% in these data.

Tested on: CD2F1 mice, L1210 leukemia ip, survival T/C
Assay: NCI In Vivo Anticancer Drug Screen. Data for tumor model L1210 Leukemia (intraperitoneal) in CD2F1 (CDF1) mice
Settings: higher = longer survival
How it was run: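 Vehicle-treated tumor-bearing mice served as controls (C) for compound-treated mice (T). Reported figure is T divided by C.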

[1] = endpoint: mean survival time, dose: 200.0 mg/kg/injection, schedule: Q04DX002 (ip), vehicle: saline with Tween-80
[2] = endpoint: mean survival time, dose: 400.0 mg/kg/injection, schedule: Q04DX002 (ip), vehicle: saline with Tween-80
[3] = endpoint: mean survival time, dose: 100.0 mg/kg/injection, schedule: Q04DX003 (ip), vehicle: saline
[4] = endpoint: mean survival time, dose: 200.0 mg/kg/injection, schedule: Q04DX003 (ip), vehicle: saline
[5] = endpoint: mean survival time, dose: 100.0 mg/kg/injection, schedule: Q04DX003 (ip), vehicle: saline with Tween-80
[6] = endpoint: mean survival time, dose: 200.0 mg/kg/injection, schedule: Q04DX003 (ip), vehicle: saline with Tween-80
[7] = endpoint: mean survival time, dose: 400.0 mg/kg/injection, schedule: Q04DX003 (ip), vehicle: saline with Tween-80
[8] = endpoint: mean survival time, dose: 12.5 mg/kg/injection, schedule: Q01DX009 (ip), vehicle: water
[9] = endpoint: mean survival time, dose: 25.0 mg/kg/injection, schedule: Q01DX009 (ip), vehicle: water
[10] = endpoint: mean survival time, dose: 50.0 mg/kg/injection, schedule: Q01DX009 (ip), vehicle: saline with Tween-80
[11] = endpoint: mean survival time, dose: 100.0 mg/kg/injection, schedule: Q01DX009 (ip), vehicle: saline with Tween-80
[12] = endpoint: mean survival time, dose: 200.0 mg/kg/injection, schedule: Q01DX009 (ip), vehicle: saline with Tween-80
[13] = endpoint: mean survival time, dose: 100.0 mg/kg/injection, schedule: Q04DX002 (ip), vehicle: saline with Tween-80

Measured: T/C

c1ccc(Cn2cccc2N=Nc2ccccc2)cc1
inactive: endpoint: mean survival time, dose: 100.0 mg/kg/injection, schedule: Q01DX001 (ip), vehicle: other 98 % of control | endpoint: mean survival time, dose: 200.0 mg/kg/injection, schedule: Q01DX001 (ip), vehicle: other 101 % of control | endpoint: mean survival time, dose: 400.0 mg/kg/injection, schedule: Q01DX001 (ip), vehicle: other 98 % of control

COc1ccc(NC(=O)Nc2cccc([N+](=O)[O-])c2OC)cc1
inactive: [1] 86 % of control | [2] 96 % of control

CC(N)C(=O)c1ccccc1 (stereo not given)
inactive: [3] 105 % of control | [4] 94 % of control

CC12OCCCC1C1CCCCC12 (stereo not given)
inactive: [5] 95 % of control | [6] 95 % of control | [7] 90 % of control

CC(C)CCNc1ncnc2[nH]ncc12
inactive: endpoint: mean survival time, dose: 12.5 mg/kg/injection, schedule: Q04DX003 (ip), vehicle: Klucel (hydroxypropylcellulose) (HPC) 106 % of control | endpoint: mean survival time, dose: 25.0 mg/kg/injection, schedule: Q04DX003 (ip), vehicle: Klucel (hydroxypropylcellulose) (HPC) 106 % of control | endpoint: mean survival time, dose: 50.0 mg/kg/injection, schedule: Q04DX003 (ip), vehicle: Klucel (hydroxypropylcellulose) (HPC) 100 % of control

CC[NH-].CC[NH-].[Cl][Pt+2][Cl]
inactive: endpoint: mean survival time, dose: 2.5 mg/kg/injection, schedule: Q04DX003 (ip), vehicle: water 115 % of control | endpoint: mean survival time, dose: 5.0 mg/kg/injection, schedule: Q04DX003 (ip), vehicle: water 116 % of control | endpoint: mean survival time, dose: 10.0 mg/kg/injection, schedule: Q04DX003 (ip), vehicle: water 112 % of control

COc1ccc2c(c1)c(C(=O)O)cc(=O)n2C
inactive: endpoint: mean survival time, dose: 100.0 mg/kg/injection, schedule: Q01DX009 (ip), vehicle: saline sonified 101 % of control | [5] 97 % of control | endpoint: mean survival time, dose: 200.0 mg/kg/injection, schedule: Q01DX009 (ip), vehicle: saline sonified 95 % of control | [6] 102 % of control | endpoint: mean survival time, dose: 400.0 mg/kg/injection, schedule: Q01DX009 (ip), vehicle: saline sonified 95 % of control | [7] 96 % of control

O=C(O)c1c2c(nc3ccccc13)Cc1ccccc1-2
inactive: [8] 104 % of control and 109 % of control | [9] 103 % of control and 108 % of control | [10] 96 % of control | endpoint: mean survival time, dose: 50.0 mg/kg/injection, schedule: Q01DX009 (ip), vehicle: water 105 % of control and 110 % of control | [11] 104 % of control | endpoint: mean survival time, dose: 100.0 mg/kg/injection, schedule: Q01DX009 (ip), vehicle: water 100 % of control and 112 % of control | [5] 98 % of control | [12] 101 % of control | endpoint: mean survival time, dose: 200.0 mg/kg/injection, schedule: Q01DX009 (ip), vehicle: water 114 % of control | [6] 104 % of control

O=c1[nH]cc([N+](=O)[O-])c(=O)[nH]1
inactive: [13] 97 % of control | [1] 97 % of control | [2] 101 % of control

COc1ccc(NC(=O)Nc2cccc(Cl)c2)c(OC)c1
inactive: [13] 88 % of control | [1] 98 % of control

CCOC(=O)CCC(C#N)(CC(=O)OCC)C(=O)OCC (stereo not given)
inactive: endpoint: mean survival time, dose: 100.0 mg/kg/injection, schedule: Q01DX001 (ip), vehicle: saline with Tween-80 96 % of control | endpoint: mean survival time, dose: 200.0 mg/kg/injection, schedule: Q01DX001 (ip), vehicle: saline with Tween-80 104 % of control | endpoint: mean survival time, dose: 400.0 mg/kg/injection, schedule: Q01DX001 (ip), vehicle: saline with Tween-80 104 % of control

O=c1[nH]c(SCc2ccc(Cl)cc2)nc(-c2ccc(Cl)cc2)c1CCO
inactive: endpoint: mean survival time, dose: 100.0 mg/kg/injection, schedule: Q01DX009 (ip), vehicle: Klucel (hydroxypropylcellulose) (HPC) 87 % of control | endpoint: mean survival time, dose: 200.0 mg/kg/injection, schedule: Q01DX009 (ip), vehicle: Klucel (hydroxypropylcellulose) (HPC) 87 % of control | endpoint: mean survival time, dose: 400.0 mg/kg/injection, schedule: Q01DX009 (ip), vehicle: Klucel (hydroxypropylcellulose) (HPC) 87 % of control

CCCCCCCCCCCCCCCCCC[N+](C)(C)C (tested in a mixture with another compound)
inactive: endpoint: mean survival time, dose: 1.5 mg/kg/injection, schedule: Q01DX009 (ip), vehicle: saline with Tween-80 100 % of control | endpoint: mean survival time, dose: 3.0 mg/kg/injection, schedule: Q01DX009 (ip), vehicle: saline with Tween-80 94 % of control | endpoint: mean survival time, dose: 6.0 mg/kg/injection, schedule: Q01DX009 (ip), vehicle: saline with Tween-80 94 % of control

COc1ccc(C(O)(c2ccccc2)C(O)c2ccccc2)cc1 (stereo not given)
inactive: endpoint: mean survival time, dose: 12.5 mg/kg/injection, schedule: Q04DX002 (ip), vehicle: saline with Tween-80 93 % of control | endpoint: mean survival time, dose: 25.0 mg/kg/injection, schedule: Q04DX002 (ip), vehicle: saline with Tween-80 86 % of control | endpoint: mean survival time, dose: 50.0 mg/kg/injection, schedule: Q04DX002 (ip), vehicle: saline with Tween-80 86 % of control | [5] 93 % of control | [6] 87 % of control | [7] 94 % of control and 89 % of control

CCOC(=O)CC1=Cc2c(OC)ccc(OC)c2CC1
inactive: endpoint: mean survival time, dose: 12.5 mg/kg/injection, schedule: Q01DX009 (ip), vehicle: other 95 % of control | endpoint: mean survival time, dose: 25.0 mg/kg/injection, schedule: Q01DX009 (ip), vehicle: other 106 % of control | endpoint: mean survival time, dose: 50.0 mg/kg/injection, schedule: Q01DX009 (ip), vehicle: other 98 % of control | endpoint: mean survival time, dose: 100.0 mg/kg/injection, schedule: Q01DX009 (ip), vehicle: other 92 % of control | endpoint: mean survival time, dose: 200.0 mg/kg/injection, schedule: Q01DX009 (ip), vehicle: other 88 % of control

COc1ccc(/C=c2\[nH]c(=O)/c(=C/c3ccc(OC)c(OC)c3)[nH]c2=O)cc1OC
inactive: endpoint: mean survival time, dose: 25.0 mg/kg/injection, schedule: Q01DX009 (ip), vehicle: saline with Tween-80 95 % of control | [10] 103 % of control | [11] 90 % of control

Nc1ccc2cc(S(=O)(=O)O)cc(O)c2c1
inactive: [5] 98 % of control | [6] 102 % of control | [7] 98 % of control

COc1cc(NC(=O)CC(C)=O)cc(OC)c1OC
inactive: [11] 100 % of control | [5] 102 % of control | [12] 100 % of control | [6] 96 % of control | endpoint: mean survival time, dose: 400.0 mg/kg/injection, schedule: Q01DX009 (ip), vehicle: saline with Tween-80 101 % of control | [7] 96 % of control

O=NN(CCCl)C(=O)NCCO
inactive: endpoint: mean survival time, dose: 2.5 mg/kg/injection, schedule: Q01DX001 (ip), vehicle: water 120 % of control | [9] 101 % of control | endpoint: median survival time, dose: 12.0 mg/kg/injection, schedule: Q01DX009 (ip), vehicle: water 103 % of control | endpoint: median survival time, dose: 12.5 mg/kg/injection, schedule: Q01DX009 (ip), vehicle: water 114 % of control and 103 % of control | endpoint: median survival time, dose: 25.0 mg/kg/injection, schedule: Q01DX009 (ip), vehicle: water 97 % of control
active: endpoint: mean survival time, dose: 3.13 mg/kg/injection, schedule: Q01DX009 (ip), vehicle: water 355 % of control | endpoint: mean survival time, dose: 5.0 mg/kg/injection, schedule: Q01DX001 (ip), vehicle: water 158 % of control | endpoint: mean survival time, dose: 6.25 mg/kg/injection, schedule: Q01DX009 (ip), vehicle: water 242 % of control | endpoint: mean survival time, dose: 10.0 mg/kg/injection, schedule: Q01DX001 (ip), vehicle: water 166 % of control and 411 % of control | [8] 187 % of control | endpoint: mean survival time, dose: 20.0 mg/kg/injection, schedule: Q01DX001 (ip), vehicle: water 333 % of control and 491 % of control | endpoint: median survival time, dose: 0.75 mg/kg/injection, schedule: Q01DX009 (ip), vehicle: water 164 % of control | endpoint: median survival time, dose: 0.78 mg/kg/injection, schedule: Q01DX009 (ip), vehicle: water 241 % of control | endpoint: median survival time, dose: 1.5 mg/kg/injection, schedule: Q01DX009 (ip), vehicle: water 223 % of control | endpoint: median survival time, dose: 1.56 mg/kg/injection, schedule: Q01DX009 (ip), vehicle: water 198 % of control | endpoint: median survival time, dose: 1.57 mg/kg/injection, schedule: Q01DX009 (ip), vehicle: water 275 % of control | endpoint: median survival time, dose: 3.0 mg/kg/injection, schedule: Q01DX009 (ip), vehicle: water 352 % of control | endpoint: median survival time, dose: 3.12 mg/kg/injection, schedule: Q01DX009 (ip), vehicle: water 308 % of control | endpoint: median survival time, dose: 3.13 mg/kg/injection, schedule: Q01DX009 (ip), vehicle: water 375 % of control | endpoint: median survival time, dose: 6.0 mg/kg/injection, schedule: Q01DX009 (ip), vehicle: water 268 % of control | endpoint: median survival time, dose: 6.25 mg/kg/injection, schedule: Q01DX009 (ip), vehicle: water 212 % of control and 262 % of control

O=C(O)CCCOc1ccc(Cl)cc1Cl
inactive: [3] 96 % of control | [4] 103 % of control | endpoint: mean survival time, dose: 400.0 mg/kg/injection, schedule: Q04DX003 (ip), vehicle: saline 97 % of control

[N-]=[N+]=CC(=O)CCC(NC(=O)OCc1ccccc1)C(=O)OCc1ccccc1 (stereo not given)
inactive: endpoint: median survival time, dose: 200.0 mg/kg/injection, schedule: Q01DX009 (ip), vehicle: Klucel (hydroxypropylcellulose) (HPC) 123 % of control and 96 % of control and 111 % of control | endpoint: median survival time, dose: 400.0 mg/kg/injection, schedule: Q01DX009 (ip), vehicle: Klucel (hydroxypropylcellulose) (HPC) 114 % of control
